Experimental data from patent US12436145B2, “Cryptic antibiotics and methods for detecting bioactive cryptic metabolites” (THE TRUSTEES OF PRINCETON UNIVERSITY, priority 2019, dated 2025).
In brackets after ≈: the same amount, converted by molar mass. Like-named read-outs stand apart in the source and are kept apart here.

Experiments:
A. baumannii ATCC 19606 = experiment: Minimal inhibitory concentration (CLSI methods); assay type: cell-based, Acinetobacter baumannii
Protocol: (§1) Antibacterial assays with taylorflavin B (8) were carried out by Micromyx, LLC in accordance with methods from the Clinical and Laboratory Standards Institute. Minimal inhibitory concentrations were determined with the following strains: E. coli ATCC 25922, A. baumannii ATCC 19606, V. cholerae BAA-2163, N. gonorrhoeae ATCC 49226, P. aeruginosa ATCC 27853, K. pneumoniae MMX 214. S. aureus ATCC 29213, S. aureus MMX 2011, S. pneumoniae ATCC 49619, S. pyogenes MMX 6253, S. agalactiae MMX 6189, E. faecalis ATCC 29212, E. faecalis MMX 486, B. subtilis ATCC 6633, C. difficile ATCC 700057, B. fragilis ATCC 25285. Assays with taylorflavin A (7) were carried in-house according to the same protocols.

E. coli = experiment: In-house bioactivity assays of induced peaks and purified taylorflavins; assay type: cell-based
K. pneumoniae MMX 214 = experiment: Minimal inhibitory concentration (CLSI methods); assay type: cell-based
Protocol: as §1

S. pyogenes MMX 6253 = experiment: Minimal inhibitory concentration (CLSI methods); assay type: cell-based
Protocol: as §1

B. fragilis ATCC 25285 = experiment: Minimal inhibitory concentration (CLSI methods); assay type: cell-based
Protocol: as §1

E. faecalis ATCC 29212 = experiment: Minimal inhibitory concentration (CLSI methods); assay type: cell-based; conditions: E. faecalis VSE
Protocol: as §1

E. coli ATCC 25922 = experiment: Minimal inhibitory concentration (CLSI methods); assay type: cell-based
Protocol: as §1

P. aeruginosa ATCC 27853 = experiment: Minimal inhibitory concentration (CLSI methods); assay type: cell-based
Protocol: as §1

B. subtilis ATCC 6633 = experiment: Minimal inhibitory concentration (CLSI methods); assay type: cell-based
Protocol: as §1

E. faecalis MMX 486 = experiment: Minimal inhibitory concentration (CLSI methods); assay type: cell-based; conditions: E. faecalis VRE
Protocol: as §1

S. agalactiae MMX 6189 = experiment: Minimal inhibitory concentration (CLSI methods); assay type: cell-based
Protocol: as §1

S. aureus ATCC 29213 = experiment: Minimal inhibitory concentration (CLSI methods); assay type: cell-based
Protocol: as §1

[1] = tested on: N. gonorrhoeae ATCC 49226; experiment: Minimal inhibitory concentration (CLSI methods); assay type: cell-based
Protocol: as §1

C. difficile ATCC 700057 = experiment: Minimal inhibitory concentration (CLSI methods); assay type: cell-based
Protocol: as §1

S. pneumoniae ATCC 49619 = experiment: Minimal inhibitory concentration (CLSI methods); assay type: cell-based; conditions: S. pneumoniae PSPP
Protocol: as §1

S. aureus MMX 2011 = experiment: Minimal inhibitory concentration (CLSI methods); assay type: cell-based; conditions: S. aureus MRSA
Protocol: as §1

[2] = tested on: collection of Gram-positive bacteria; experiment: Antibacterial assays, Gram-positive panel; assay type: cell-based
Protocol: as §1

V. cholerae BAA-2163 = experiment: Minimal inhibitory concentration (CLSI methods); assay type: cell-based, Vibrio cholerae
Protocol: as §1

S. hiroshimensis A18 = experiment: Validation of elicitor: disc diffusion assay of culture extracts on E. coli ZSR638; assay type: cell-based, Streptomyces hiroshimensis; conditions: S. hiroshimensis culture induced by 33 μM atenolol; uninduced control none
Protocol: Seed cultures of S. hiroshimensis A18 were prepared as described for the HiTES screen above. […] A control flask was prepared containing the same volume of DMSO, rather than atenolol. The culture was incubated at 30° C./200 rpm. […] The organic phases were combined, divided in two, and dried in vacuo.
For the disc diffusion assays, the dried control and atenolol-treated culture extracts were dissolved in 100 μL of DMSO each. Filter paper discs were infused with 30 μL of each sample, allowed to dry, and then placed on a soft LB agar (1% agarose) plate inoculated with E. coli ZSR638 at a concentration of 2×10^6 cells/mL. The agar plate was incubated at 37° C. for 10 h and then inspected visually.

[3] = tested on: Gram-positive bacteria tested; experiment: Cebulantin bioactivity screen; assay type: cell-based
several Vibrio strains = experiment: Cebulantin bioactivity screen (IC50); assay type: cell-based; conditions: range over several Vibrio strains
β-galactosidase = conditions: cited from earlier work

In the case of `Cn1nc2c(nc1=O)c(=O)n(C)c(=O)n2C` [Taylorflavin B, 2-methylfervenulone], the “minimal inhibitory concentration (MIC)” value (A. baumannii ATCC 19606) is reported as 16 µg/mL (≈ 71.7 µM), the “antibiotic activity / inhibition of E. coli growth” value (E. coli) is reported as “more potent inhibitor” and the “antibiotic activity / inhibition of E. coli growth” value (E. coli; listed as 8) is reported as “antibiotic activity”. The “minimal inhibitory concentration (MIC)” value (K. pneumoniae MMX 214) was over 64 µg/mL, the “minimal inhibitory concentration (MIC)” value (S. pyogenes MMX 6253) was 32 µg/mL (≈ 143 µM) and the “minimal inhibitory concentration (MIC)” value (B. fragilis ATCC 25285) was over 64 µg/mL. The “minimal inhibitory concentration (MIC)” value (E. faecalis ATCC 29212) was over 64 µg/mL, the “minimal inhibitory concentration (MIC)” value (E. coli ATCC 25922) was 16 µg/mL (≈ 71.7 µM) and the “minimal inhibitory concentration (MIC)” value (P. aeruginosa ATCC 27853) was over 64 µg/mL. For the same compound, the “minimal inhibitory concentration (MIC)” value (B. subtilis ATCC 6633) was 64 µg/mL (≈ 287 µM), the “minimal inhibitory concentration (MIC)” value (E. faecalis MMX 486) was 64 µg/mL (≈ 287 µM) and the “minimal inhibitory concentration (MIC)” value (S. agalactiae MMX 6189) was 32 µg/mL (≈ 143 µM). The “minimal inhibitory concentration (MIC)” value (S. aureus ATCC 29213) was 64 µg/mL (≈ 287 µM), the “minimal inhibitory concentration (MIC)” value [1] was 4 µg/mL (≈ 17.9 µM) and the “minimal inhibitory concentration (MIC)” value (C. difficile ATCC 700057) was over 64 µg/mL. For the same compound, the “minimal inhibitory concentration (MIC)” value (S. pneumoniae ATCC 49619) was 32 µg/mL (≈ 143 µM), the “minimal inhibitory concentration (MIC)” value (S. aureus MMX 2011) was 64 µg/mL (≈ 287 µM) and the “growth inhibition of Gram-positive bacteria” value [2] was “did not inhibit the growth”. For the same compound, the “minimal inhibitory concentration (MIC)” value (V. cholerae BAA-2163) was 16 µg/mL (≈ 71.7 µM).

With `CC(C)NCC(O)COc1ccc(CC(N)=O)cc1` (centres unmarked) [atenolol] the “zone of inhibition on E. coli agar plates” value (S. hiroshimensis A18) was “clear zone of inhibition”.

For `C/C=C1\NC(=O)CNC(=O)[C@H](Cc2ccccc2)NC(=O)[C@H](NC(=O)[C@@H](NC(=O)[C@@H]2CCCN2C(=O)CN)[C@@H](C)CC)[C@H](C)SC[C@@H]2NC(=O)[C@H](NC1=O)[C@H](C)SC[C@@H](C(=O)N1CCC[C@H]1C(=O)N[C@@H]1CSC[C@@H](C(=O)O)NC(=O)[C@H](CO)NC(=O)[C@H](C(C)C)NC(=O)/C(=C/C)NC(=O)[C@H](CC(N)=O)NC(=O)[C@H](C)NC1=O)NC(=O)[C@@H]1C[C@@H](O)CN1C(=O)/C(=C/C)NC(=O)CNC(=O)[C@H](Cc1c[nH]c3ccccc13)NC2=O` [cebulantin], the IC50 (V. anguillarum) was 29.1 ± 8.2 µM, the IC50 (V. ordahi) was 27 ± 5.4 µM and the growth-inhibitory activity [3] was “no growth-inhibitory activity”. It also gave an IC50 (V. cholerae) of 14.1 ± 2.4 µM, an IC50 (P. aeruginose) of 47 ± 11.4 µM and an IC50 (S. aureus) of over 100 µM. The IC50 (several Vibrio strains) was 8.8 to 29.1 µM, the IC50 (B. subtilis) was over 100 µM and the IC50 (V. parahaemolyticus) was 8.8 ± 2.1 µM. The IC50 (E. coli (ΔlptD)) was 9.7 µM and the IC50 (V. alginolyticus) was 24.5 ± 3.2 µM.

For `OCc1cc2c([nH]c3ccccc32)c(C(O)CO)n1` (centres unmarked) [pyridindolol], the “inhibitory activity against β-galactosidase” value (β-galactosidase) is given as “inhibitory activity”.
